One data set concerns the target T1, recombinant human sEH (Homo sapiens, UniProt P34913).
T1 construct: purchased Cayman Chemical 10011669
T1 sequence (P34913 1-555): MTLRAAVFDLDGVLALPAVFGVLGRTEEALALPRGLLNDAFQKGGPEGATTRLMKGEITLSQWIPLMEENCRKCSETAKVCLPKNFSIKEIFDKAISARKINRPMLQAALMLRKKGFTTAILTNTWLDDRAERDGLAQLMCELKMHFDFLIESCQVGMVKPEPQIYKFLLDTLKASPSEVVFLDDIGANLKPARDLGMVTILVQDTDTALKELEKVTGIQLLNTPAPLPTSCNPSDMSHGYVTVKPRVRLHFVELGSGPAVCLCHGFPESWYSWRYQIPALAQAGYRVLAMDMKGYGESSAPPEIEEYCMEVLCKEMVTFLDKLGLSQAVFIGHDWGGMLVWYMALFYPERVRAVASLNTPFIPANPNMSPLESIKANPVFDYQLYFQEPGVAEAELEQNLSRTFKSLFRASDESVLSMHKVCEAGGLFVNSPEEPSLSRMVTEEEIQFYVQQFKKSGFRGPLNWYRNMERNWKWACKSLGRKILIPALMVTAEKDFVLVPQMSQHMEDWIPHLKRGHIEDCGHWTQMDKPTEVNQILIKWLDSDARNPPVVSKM
Kind of data set: In vitro determination of sEH inhibition activity (fluorescent assay, PHOME substrate). The settings on record: mean ± Standard Error, min. three replicates, read-out: IC50 (nM) ± SE, sEH inhibition activity. Format: biochemical. On the procedure:
3-(Phenyl-oxiranyl)-acetic acid cyano-(6-methoxy-naphthalen-2-yl)-methyl ester (PHOME; from Cayman Chemical, item number 10009134; CAS 1028430-42-3); cf. N. M. Wolf et al., Anal. Biochem. 2006, vol. 355, pp. 71-80.
Solutions: • Assay buffer: Bis/Tris HCl 25 mM pH 7.0 containing 0.1 mg/mL of bovine serum albumin (BSA). • PHOME at 200 μM in DMSO. • Solution of recombinant human sEH (Cayman Chemical, item number 10011669), diluted with assay buffer. • Inhibitors dissolved in DMSO at appropriated concentrations.
In a black 96-well plate (Greiner Bio-One, item number 655900), fill the background wells with 90 μL and the positive control and inhibitor wells with 85 μL of assay buffer. Add 5 μL of DMSO to background and positive control wells, and then add 5 μL of inhibitor solution in inhibitor wells. Add 5 μL of the solution of hsEH to the positive control and inhibitor wells and mix several time. Prepare a 1/21 dilution of the solution of PHOME with assay buffer according to final volume required, and then add 105 μL of each well. Shake carefully the plate for 10 seconds and incubate for 5 minutes at room temperature. […] Results were obtained by regression analysis from at least three data points in a linear region of the curve. IC50 values are average of minimum three independent replicates.

The nature of data set [1]: Determination of cytotoxicity in THLE-2 cells (ATP viability). The format is cell-based. As to conditions: human. How it is done:
Cytotoxic effects of assayed compounds were tested using the immortalized human liver cell line THLE-2 (ATCC CRL-2706). Cells were cultured in BEGM medium (Clonetics # CC-4175) containing all the supplements kit except additional EGF and G418. Medium was completed by adding 0.7 μg/mL phosphoethanolamine, 0.5 ng/mL epidermal growth factor, antibiotics (penicillin and streptomycin) and 10% fetal bovine serum (FBS).
Cells were plated in 96-well black microplates at 10,000 cells/well density and were incubated at 37° C. (5% CO2, 95% humidity) for 24 h to allow the cells to adhere and form a monolayer. Test compounds were solubilized in 100% DMSO at a concentration curve way and then diluted with cell culture medium containing 10% DMSO. The final concentrations of the test compounds (1% DMSO) ranged from 0-100 μM in a final volume of 200 μL. Microplates were maintained at 37° C. (5% CO2, 95% humidity) during 3 days. Following this 72 h exposure to test compounds, cell viability in each well was determined by measuring the concentration of cellular adenosine triphosphate (ATP) using the ATP1Step Kit as described by the manufacturer (Perkin-Elmer). In a typical procedure, 50 μL of cell reagent is added to all wells of each test plate followed by incubation for 10 min at room temperature on an orbital shaker. ATP concentration was determined by reading chemical luminescence using the Envision plate reader (PerkinElmer). The percentage of viable cells relative to the non-drug treated controls was determined for each well and LC50 values were calculated as concentrations projected to kill 50% of the cells following a 72 h exposure, an average of minimum two independent replicates.

Data set [2] can be described thus: Determination of water solubility (nephelometry). The format is physicochemical. As to conditions: aqueous with cosolvent or surfactant or cyclodextrin, kinetic from dmso stock; 5% DMSO: 95% PBS buffer, 37° C., read after 2 and 4 h; read-out: S (solubility).
A short description of data set [3]: Parallel artificial membrane permeation assay for blood-brain barrier (PAMPA-BBB). The format is in vitro ADME, porcine. The settings on record: PBS:EtOH (70:30). How it is done: The in vitro permeability (Pe) of the test compounds through lipid extract of porcine brain membrane was determined. Assayed compounds were tested using a mixture of PBS:EtOH (70:30). […] From this equation and taking into account the limits established by Di et al. for BBB permeation, the ranges of permeability were established, as follows.

Another data set addresses T2, CYP1A2 (Homo sapiens, UniProt P05177).
T2 sequence (P05177 1-516): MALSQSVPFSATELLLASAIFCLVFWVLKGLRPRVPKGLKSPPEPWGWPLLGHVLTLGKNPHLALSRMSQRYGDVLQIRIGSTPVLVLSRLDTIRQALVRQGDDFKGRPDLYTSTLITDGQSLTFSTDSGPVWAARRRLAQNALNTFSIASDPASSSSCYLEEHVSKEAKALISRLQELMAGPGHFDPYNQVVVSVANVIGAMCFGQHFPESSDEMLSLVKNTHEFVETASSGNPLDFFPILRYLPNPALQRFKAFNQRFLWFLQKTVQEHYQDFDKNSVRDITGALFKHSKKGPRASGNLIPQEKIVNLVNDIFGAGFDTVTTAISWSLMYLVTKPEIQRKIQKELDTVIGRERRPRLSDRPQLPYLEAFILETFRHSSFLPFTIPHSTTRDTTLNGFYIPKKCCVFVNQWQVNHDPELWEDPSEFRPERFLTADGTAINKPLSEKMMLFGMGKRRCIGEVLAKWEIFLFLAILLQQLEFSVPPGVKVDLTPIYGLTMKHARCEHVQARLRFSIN
Kind of data set: Inhibition of human cytochrome P450 CYP1A2. The format is in vitro ADME. As to conditions: human cytochrome P450 enzyme. The text has this:
(§1) The epoxidation of arachidonic acid (AA) by selected cytochrome P450 epoxygenases generates epoxyeicosatrienoic acids (EETs). These EETs show anti-inflammatory, antihypertensive, analgesic, angiogenic, and antiatherosclerotic effects in rodents and humans. sEH converts EETs to their corresponding dihydroxyeicosatrienoic acids (DHETs), whereby the biological effects of EETs are diminished, eliminated, or altered. Among the P450 enzymes, it is known that CYP2C19 and CYP1A2 have the highest formation rate of EETs from AA (cf. A. A. El-Sherbeni et al. “Repurposing resveratrol and fluconazole to modulate human cytrochrome P450-mediated arachidonic acid metabolites”, Molecular Pharmaceutics 2016, vol. 13, pp. 1278-1288). For this reason, a highly desirable aspect of any new sEH inhibitor is selectivity in front of CYP2C19 and CYP1A2.

For another data set, the target named is CYP2C19 (Homo sapiens, UniProt P33261). Description: Inhibition of human cytochrome P450 CYP2C19. Format: in vitro ADME. The settings on record: human cytochrome P450 enzyme.
Text: as §1

In a further data set the target is T3, sEH in AR42j cells (Rattus norvegicus, UniProt P80299).
T3 sequence (P80299 1-554): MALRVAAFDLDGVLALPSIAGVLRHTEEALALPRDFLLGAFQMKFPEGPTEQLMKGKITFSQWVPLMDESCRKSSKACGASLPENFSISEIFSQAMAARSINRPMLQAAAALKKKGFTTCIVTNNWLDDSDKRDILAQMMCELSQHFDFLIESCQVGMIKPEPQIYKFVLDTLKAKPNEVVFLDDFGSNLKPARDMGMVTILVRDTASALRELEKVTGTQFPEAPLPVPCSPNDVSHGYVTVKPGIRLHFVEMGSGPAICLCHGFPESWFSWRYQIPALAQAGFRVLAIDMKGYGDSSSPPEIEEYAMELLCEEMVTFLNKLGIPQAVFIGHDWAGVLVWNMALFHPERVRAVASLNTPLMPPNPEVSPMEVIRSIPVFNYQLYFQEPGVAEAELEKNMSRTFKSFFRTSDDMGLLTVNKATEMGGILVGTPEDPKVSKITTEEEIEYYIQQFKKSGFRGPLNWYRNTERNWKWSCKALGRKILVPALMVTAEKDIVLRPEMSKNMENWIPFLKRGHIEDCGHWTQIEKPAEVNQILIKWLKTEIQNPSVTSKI
Description: In vitro determination of sEH inhibition activity in AR42j cells (cell-based fluorescent assay). The settings on record: AR-42J, read-out: % Inhn. ± SE (100 μM), sEH inhibition activity in cell culture.

Converted amounts (≈) assume the structure as drawn. Like-named read-outs stand apart in the source and are kept apart here. A value given as a limit tells only on which side of the number the result lay.

CYP2C19, sequence (P33261 whole entry): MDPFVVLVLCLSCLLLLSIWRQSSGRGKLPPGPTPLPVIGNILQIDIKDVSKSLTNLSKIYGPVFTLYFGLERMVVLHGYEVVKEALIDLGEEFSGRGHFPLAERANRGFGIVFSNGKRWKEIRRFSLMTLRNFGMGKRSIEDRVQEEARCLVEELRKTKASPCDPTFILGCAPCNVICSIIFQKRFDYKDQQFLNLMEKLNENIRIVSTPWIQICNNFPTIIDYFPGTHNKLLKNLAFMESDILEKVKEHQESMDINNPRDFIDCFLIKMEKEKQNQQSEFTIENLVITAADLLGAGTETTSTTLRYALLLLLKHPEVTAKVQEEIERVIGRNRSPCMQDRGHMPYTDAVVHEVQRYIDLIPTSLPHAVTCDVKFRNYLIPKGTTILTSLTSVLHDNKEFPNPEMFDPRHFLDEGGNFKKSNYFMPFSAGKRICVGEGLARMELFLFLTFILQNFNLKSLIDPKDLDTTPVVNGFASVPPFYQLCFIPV
Description for sEH in AR42j cells: Solutions Preparation: • Assay buffer 1×: add 10 mL of the CBA-Buffer (10×) to 90 mL of distilled water. • Lysis Buffer: add 50 μL of the CBA Digitonin Solution to 10 mL of Buffer Assay 1×. • Substrate Solution: dilute 10 μL of CBA sEH Substrate with 10 mL of Assay Buffer 1×. • Standards: preparation of 7 concentrations of CBA 6-methoxy-2-naphtalaldehyde from 0 until 2 M with Assay Buffer 1×. • sEH Positive Control: Prepare another stock A (1 μg/ml: 1 μL CBA sEH Positive Control+1 mL Assay Buffer 1×). From the already prepared stock A, prepare 250 μL of sEH (10 ng/mL): 2.5 μL sEH stock A+250 μL Assay Buffer 1×). • sEH Inhibitor AUDA: dilute 10 μL CBA sEH Inhibitor with 500 ml Assay Buffer 1×. • Inhibitors dissolved in DMSO at appropriated concentrations.
Seed cells in a 96-well plate at a density of (2×10^4)-(5×10^4) cells/well in 100 μL of culture medium with or without compounds to be tested. Incubation of the cells in a CO2 incubator at 37° C. for 48 hours. Aspirate the culture medium and add 200 μL of Assay Buffer 1× to each well. Centrifuge the plate at 800 rmp for 5 minutes. Aspirate the supernatant and add 100 μL of Lysis Buffer to each well. Incubate with gentle shaking on an orbital shaker for 30 minutes at room temperature. Centrifuge the plate at 3000 rpm for 20 minutes at 4° C. Transfer 90 μL of the supernatants to the 96-Well Solid Plate (black). Add 10 μL Assay Buffer 1× or 10 μL of the AUDA solution to appropriate wells. For positive control wells, add 100 μL of the 10 ng/mL sEH Positive Control to two wells. Add 200 μL of 6-methoxy-2-Naphthaldehyde Standards to corresponding wells of the black plate. Add 100 μL of the sEH Substrate Solution to each well, except the standards. Incubate the plate at 37° C. for 30 minutes. […] The intensity of fluorescence was used to analyze and calculate inhibition percentages, shown in the Table as average of minimum three independent replicates.

The term IC50 denotes the concentration that inhibits the measured activity by half. As for `O=C(Nc1ccc(F)c(F)c1F)NC12CC3CC(C1)CC(c1ccccc1)(C3)O2` [Ie, 1-(3-phenyl-2-oxaadamantan-1-yl)-3-(2,3,4-trifluorophenyl)urea], the IC50 on recombinant human sEH was found to be 21.3 ± 4.3 nM.
Broadly, the solubility is the dissolved amount per volume that the medium holds. For the compound `CCC12CC3CC(C1)CC(NC(=O)Nc1ccc(F)c(F)c1F)(C3)O2` [Ic, 1-(3-ethyl-2-oxaadamantan-1-yl)-3-(2,3,4-trifluorophenyl)urea], the CC50 at 72 h in data set [1] was greater than 100 µM. For the same compound, on recombinant human sEH, the IC50 was 8.1 ± 3.2 nM. Besides, in data set [2], the solubility came to 77 µM (≈ 27.3 µg/mL). Also, the CNS prediction entry in data set [3] was “CNS+ (Compounds of high BBB permeation (CNS+): Pe (10^6 cm s^−1)>5.181)”.
Regarding `O=C(Nc1ccc(F)c(F)c1F)N[C@@]12CC3C[C@H](C1)C[C@](C1CCCCC1)(C3)O2` (stereo in doubt) [Id, 1-(3-cyclohexyl-2-oxaadamantan-1-yl)-3-(2,3,4-trifluorophenyl)urea], the IC50 at recombinant human sEH worked out at 17.5 ± 3.6 nM.
One may read the inhibition as how much of the control response was suppressed. Take `CC(=O)N1CCC(NC(=O)NC23CC4CC(CC(C4)O2)C3)CC1` [If, 1-(2-oxaadamantan-1-yl)-3-(1-acetylpiperidin-4-yl)urea]: in data set [1] (THLE-2 cells, 72 h exposure, 0-100 μM, read-out: LC50 (μM), cytotoxicity), the CC50 at 72 h is greater than 100 µM. Also, at recombinant human sEH, the IC50 came out at 19.8 ± 6.2 nM. Moreover, the inhibition at 1 µM on CYP1A2 and at CYP2C19 was no more than 6% throughout. For the same compound, in data set [2], the solubility is greater than 100 µM. Besides, the inhibition at 100 µM at sEH in AR42j cells is 42.1 ± 5%.
For the compound `CC12CC3CC(C1)CC(NC(=O)Nc1ccc(F)c(F)c1F)(C3)O2` [Ib, 1-(3-methyl-2-oxaadamantan-1-yl)-3-(2,3,4-trifluorophenyl)urea], the CC50 at 72 h in data set [1] is greater than 100 µM. Moreover, at recombinant human sEH, the IC50 was found to be 21.3 ± 5.4 nM. The solubility in data set [2] amounted to 63 µM (≈ 21.4 µg/mL). Further, in data set [3], the CNS prediction result is “CNS+ (Compounds of high BBB permeation (CNS+): Pe (10^6 cm s^−1)>5.181)”.

These data come from patent US20200079786A1, “ANALOGS OF […] AS SOLUBLE EPOXIDE HYDROLASE INHIBITORS” (UNIVERSITAT DE BARCELONA, priority 2015, published 2020).
